Measured values from patent US20170165317A1, “METHOD FOR MITIGATING OR ALLEVIATING SYNAPTIC AND COGNITIVE DEFICITS” (Trustees of Dartmouth College, priority 2013, published 2017).

System: APP/PS1 mice
Assay: Novel object location task after i.c.v. infusion by osmotic minipump
Type: in vivo, mouse
Settings: VO-OHpic infused 3-4 weeks into brain ventricles
Description: APP/PS1 and wild-type mice were anesthetized with isofluorane, and i.c.v. delivery cannulas (brain alzet kit III) were implanted with a stereotaxic frame (KOPF Instruments) at the following coordinates according to the bregma: AP, −0.5 mm; ML, 1 mm; and DV, −2.2 mm. Osmotic minipumps (Alzet) were filled with artificial cerebrospinal fluid (aCSF) with or without PTEN inhibitor VO-OHpic (2.5 μM) and equilibrated in 0.9% NaCl at 37° C. for 48 hours. They were attached to the i.c.v. cannula tubing and subcutaneously implanted at the back. After 21 days, behavioral testing was started as described herein. One month after implantation, mice were sacrificed and the brains were sliced stained with Nissl to verify the location of the cannula. Animal manipulation and data analysis was carried out blind with respect to genotype and treatment.
Novel-Object Location. This assay was chosen because it is not intrinsically stressful. This factor, in mice, crucially affects cognitive performance in other spatial learning paradigms (e.g., Morris water maze). The memory tests were composed of three phases—“habituation”, “sample” and “choice” trials. Mice were first habituated individually to an empty open-field box (35×35×15 high cm) for 30 minutes. A sample trial (object exposure) consisted of placing a mouse into the test box which contained two identical objects. […] A recognition index was calculated by dividing the total time spent exploring the displaced object by the total time spent exploring both objects during the test session. […]
It was posited that if early Aβ-induced cognitive impairment results from a general synaptic bias toward LTD events (Selkoe (2002) Science 298:789-791), dampening this form of synaptic plasticity might prevent cognitive decay. Therefore, it was determined whether in vivo inhibition of PTEN, a lipid phosphatase that is involved in LTD (Jurado, et al. (2010) EMBO J. 29:2827-2840), would rescue cognitive deficits in APP/PS1 mice. […]

For `O=C(O)c1ncccc1O.O=C(O)c1ncccc1O.[O]=[V][O-]` [VO-OHpic], which “performance in novel object location task (recognition index)” value (APP/PS1 mice, P=0.02 vs vehicle-infused APP/PS1, recognition index similar to wild-type) is on record?
The value was “significant improvement”.

And the “performance in novel object location task (recognition index)” value (wild-type mice)?
Its value is “did not affect the performance”.
